“Also recorded” adds a separate entry of the source.
Key:
[1] = Example 13 porcine study: blood and tissue pharmacokinetics
Protocol: (§1) Methods. Twelve animals were evaluated for tissue safety and pharmacokinetic blood and tissue profiles. The animals received vessel injury induced via oversizing a balloon at ˜20-30% overstretch, then receiving subsequent Bullfrog® catheter delivery of 4 mg/mL Torisel® or saline placebo control into the adventitia and perivascular tissue around the coronary and femoral arteries. Blood samples for pharmacokinetic analysis were taken at 5 minutes, 30 minutes, 1 hour, 24 hours, 72 hours, 7 Days, 28 Days, and termination. Animals were terminated at 90 days. Gross examination of all treated tissues and surrounding structures was performed. […] Histological analysis was performed on all other collected arterial tissues.

[2] = system: IL6 cytokine production of human aortic VSMCs; assay: IL6 ELISA of supernatant of PDGF-stimulated VSMCs; format: cell-based; conditions: for PDGF-induced IL6 levels: 48 h, single drug 0, 10, 50, 500 nM, or 500 nM TEM or PAC with DEX 10, 50, 500 nM, FIG. 19D
Protocol: (§2) Following a 48 hour incubation in the presence of drug and stimulant (PDGF), 50 uL of supernatant from each well was collected and ELISAs were performed to measure IL6 levels. Pro-inflammatory cytokine expression was examined under these conditions by measuring IL6 levels in cell supernatant after 48 h by enzyme-linked immunoassay (ELISA; Peprotech #900-T16, #900-T25).

[3] = system: human aortic VSMCs; assay: BrdU ELISA proliferation of PDGF-stimulated VSMCs; format: cell-based; conditions: Example 11; 1 nM to 100 μM for 12 hours; PDGF 10 ng/mL; compared to vehicle control and actinomycin D; FIG. 20
Protocol: (§3) A study was performed to assess the ability of a range of drug or drug combinations to induce cytotoxicity in PDGF-stimulated aortic smooth muscle and endothelial cells in vitro. […] Utilizing protocols for EC and VSMC stimulation mediated by the growth factor, PDGF, cells were incubated in drug at concentration ranges from 0, 1, 10, 100 nM, 1, 10, 100 μM for 12 hours prior to assessment for cellular activation and cytotoxicity. Prior to harvest, BrdU was added to each well for 6 hours for DNA incorporation. […] Data represent the average absorbance readings. […] Cellular activation was monitored by metabolic activity and cellular proliferation. Metabolic activity was measured using the MTT assay to monitor enzyme-dependent metabolite production while proliferation was measured using 5-bromo-2′-deoxyuridine (BrdU) ELISA to monitor DNA synthesis.

[4] = system: TNFα production of human aortic VSMCs; assay: TNFα ELISA of supernatant of PDGF-stimulated VSMCs; format: cell-based; conditions: for PDGF-induced TNFα levels: 48 h, single drug 0, 10, 50, 500 nM, or 500 nM TEM or PAC with DEX 10, 50, 500 nM, FIG. 19E
Protocol: as §2, with “TNFα” for “IL6”

[5] = system: human aortic VSMCs; assay: Apoptosis by Caspase 3 ELISA in drug-treated VSMCs; conditions: 12 hours; for apoptosis (Caspase 3 activation): increasing drug concentrations, with or without 50 nM dexamethasone, FIG. 17A-C
Protocol: At harvest, cells were gently lysed and a Caspase 3 ELISA was performed (Cell Signaling Technologies, Cat #7190). Absorbance readings were taken using a microtiter plate reader (Tecan). […] Data represent the average of 9 replicate wells per condition and error bars represent the standard deviation of the 9 replicates. Baseline levels of VSMC apoptosis were obtained using vehicle controls and values were set to zero. The percent change in apoptosis in the presence of drug was determined from baseline (FIG. 17A-C).
Cells were then incubated for 12 hours. At harvest, plates were centrifuged at 800 rpm in a clinical centrifuge, and supernatant was carefully removed. Cells were then fixed and permeabilized and assayed for cytoplasmic caspase 3 levels by ELISA, according to manufacturer instructions (Cell Signaling Technologies). Absorbance readings were taken using a microtiter plate reader (Tecan). Data represent the average absorbance readings. Error bars represent the standard deviation amongst replicates.

[6] = system: human aortic VSMCs; conditions: 12 hours; for LDH release (necrosis and cytolysis): increasing drug concentrations, with or without 50 nM dexamethasone, FIG. 18A-C; for necrotic cytotoxicity (LDH): single drug or 500 nM TEM or PAC with DEX 10, 50, 500 nM, FIG. 19C
Protocol: At harvest, plates were centrifuged at 800 rpm in a clinical centrifuge, and supernatant was carefully removed and assayed for lysed cells by measuring the LDH released into the culture media by ELISA, according to manufacturer instructions. Absorbance readings were taken using a microtiter plate reader (Tecan). […] Data in FIG. 18A represent the LDH release in the presence of increasing concentrations of sirolimus or sirolimus+50 nM dexamethasone. […] Data represent the average of 9 replicate wells per condition and error bars represent the standard deviation of the 9 replicates.
Treated cells were then incubated for 12 hours. At harvest, plates were centrifuged at 800 rpm in a clinical centrifuge, and supernatant was carefully removed and assayed for LDH by ELISA according to manufacturer instructions. Absorbance readings were taken using a microtiter plate reader (Tecan). Data represent the average absorbance readings. Error bars represent the standard deviation amongst replicates.

[7] = system: human aortic VSMCs; assay: MTT metabolic activity / proliferation of PDGF-stimulated VSMCs; format: cell-based; conditions: PDGF 10 ng/mL; for inhibitory activity in the MTT assay: Example 11, 1 nM to 100 μM for 12 hours; for inhibition of metabolic activity and proliferation (MTT assay): drug 0, 1, 10, 100, 500 nM, with or without 50 nM dexamethasone, FIGS. 14A-C
Protocol: Drug-specific effects on cellular metabolic activity, pro-inflammatory cytokine production and cytotoxicity were examined. As a cytotoxic control for disruption of metabolic activity, we used actinomycin D (100 ng/mL or […]). As a negative control, vehicle (5% (v/v) sterile DMSO in saline) was used. Following an 8 hour incubation in the presence of drug and stim (PDGF), MTT substrate was added and incubated for an additional 4 hrs prior to measurement. […] Data represent the average absorbance readings.
After 8 h incubation, MTT substrate was added and incubated for an additional 4 hrs prior to measurement (T=12 hours). […] Data represent the average absorbance readings. […] FIG. 19A presents the percent of inhibition that was identified in the presence of single or combination drugs. Low doses of all drugs, administered individually, had minimal inhibitory properties, as compared to high dose of each drug.
as §3

[8] = system: external iliac arteries; assay: Example 15 WHHL rabbit model of balloon overstretch artery stenosis: histopathology; format: in vivo, Watanabe heritable hyperlipidemic (WHHL) rabbit; conditions: relative to dexamethasone alone or vehicle group
Protocol: Overview. A rabbit study was performed to evaluate the tissue effect of Torisel® (Tem) and dexamethasone (Dex) when delivered as combined or alone to peripheral vasculature in a Watanabe heritable hyperlipidemic (WHHL) rabbit model of balloon overstretch artery stenosis. Each animal was subject to balloon angioplasty and treatment in each of the two (2) external iliac arteries. Four subjects were assigned to each of three groups: Torisel®, dexamethasone, or combination. Three subjects were assigned to each of two groups: control (vehicle delivery) or balloon only. Two New Zealand white rabbits were assigned to treatment with balloon only in one iliac and were naïve to any treatment in the other iliac.
Methods. Twenty animals were evaluated for tissue effect of peri-vascular injection of test and control articles. […] The animals received vessel injury induced via oversizing a balloon (˜20-30% overstretch). Animals were divided into the six groups with varying balloon injury targets and various combinations of test and control articles. The test and control articles were injected into the peri-vascular tissue using the Bullfrog® catheter. Animals were recovered and survived for ˜28 days. At ˜28 days, animals were sacrificed, a gross pathology performed and tissue harvested for histopathology analysis.

[9] = dosage of 4 mg/mL temsirolimus
Protocol: as §1

[10] = set-up: species or system swine; conditions: pig, in vivo
Protocol: The study design included a total of eleven (11) animals; 8 of which received angioplasty overstretch followed by single dose of test article in bilateral superficial femoral arteries administered for a total in-life phase of 1 hour (n=2), 3 days (n=2), 7 days (n=2) and 28 days (n=2) and three additional animals that served as control by undergoing angioplasty overstretch followed by infusion of saline and surviving for 3 days (n=1), 7 days (n=1) and 28 days (n=1). A carotid artery access was utilized for all interventional procedures. […] Animals survived to 1 hour (n=2), 3 days (n=2), 7 days (n=2) and 28 days (n=2), for detailed histopathology and safety evaluation. Following survival to the designated endpoint, animals underwent blood collection, then were euthanized and necropsied followed by histological examination.
A prospective study of a single dose (357 μg in 1.5 ml) of adventitially delivered study drug (Torisel®) was conducted. All doses contained 50% contrast medium for distribution tracking. Each pig received bilateral injections in the mid femoral region. 2 pigs each were sacrificed at 1 hour, 3 days, 7 days and 28 days, for a total of 8 pigs. […] 3 pigs were used as control in which treatment sites were subjected to overstretch injury followed by infusion of saline via the Mercator Bullfrog® catheter and sacrificed at 3 days, 7 days or 28 days (1 pig at each time point). […]

[11] = in vivo
Text: Overview: The purpose of this study was to evaluate the safety and pharmokinetic profile of Torisel® and dexamethasone when delivered in an exaggerated dose to peripheral vasculature in a porcine model of balloon overstretch artery stenosis.
Methods: Four juvenile porcine subjects were used on this study to assess tissue safety and pharmacokinetic profile. The animals received femoral artery injury induced via oversizing a balloon (˜20-30% overstretch). Three animals received subsequent treatment with the Bullfrog® catheter of Torisel® (2 mg/mL) with dexamethasone (6 mg/mL) and contrast medium (20%) into the adventitia and perivascular tissue around the peripheral arteries. The fourth animal received subsequent treatment with the Bullfrog® catheter of saline and contrast medium (20%) into the adventitia and perivascular tissue around the peripheral arteries. Blood samples were taken at baseline, and post-implant 20 minutes, 1 hour, 4 hours, 24 hours, 3 days, 7 days, and just prior to termination for pharmacokinetic assessment. […] The other three animals were survived for 14 days. At day 14, blood was collected, animals were euthanized and a necropsy was performed.

## CO[C@H]1C[C@@H]2CC[C@@H](C)[C@@](O)(O2)C(=O)C(=O)N2CCCC[C@H]2C(=O)O[C@H]([C@H](C)C[C@@H]2CC[C@@H](O)[C@H](OC)C2)CC(=O)[C@H](C)/C=C(\C)[C@@H](O)[C@@H](OC)C(=O)[C@H](C)C[C@H](C)/C=C/C=C/C=C/1C [sirolimus]
[1]; 52 mg versus 5.2 mg Torisel
  relation of observed blood concentrations to dose: proportional to dose
[1]; termination at 90 days
  homogenized vascular tissue levels: all below LLOQ
  whole blood levels at 28 days and at termination: below LLOQ
[1]; up to 52 mg or 5.2 mg Torisel, perivascular, coronary and peripheral arteries
  whole blood levels, time course: peaked at early time points, declined over time to Day 7

## CC(=O)O[C@H]1C(=O)[C@@]2(C)[C@H]([C@H](OC(=O)c3ccccc3)[C@]3(O)C[C@H](OC(=O)[C@H](O)[C@@H](NC(=O)c4ccccc4)c4ccccc4)C(C)=C1C3(C)C)[C@]1(OC(C)=O)CO[C@@H]1C[C@@H]2O [paclitaxel]
[2]
  PDGF-induced IL6 levels: dose-dependent upregulation
[2]; 48 hour incubation, increasing drug concentrations, with or without 50 nM dexamethasone, FIGS. 16A-C
  IL6 production: induced IL6 and TNFα production by SMCs at all doses tested; also recorded: no significant change in IL6 levels between 50 and 500 nM
[3]
  inhibition of BrdU incorporation (cellular proliferation): approached the degree of inhibition of actinomycin D
[4]
  PDGF-induced TNFα levels: dose-dependent upregulation
[4]; 48 hour incubation, increasing drug concentrations, with or without 50 nM dexamethasone, FIGS. 15A-C
  TNFα production: activated pro-inflammatory cytokine expression; also recorded: induced IL6 and TNFα production by SMCs at all doses tested; also recorded: increased steadily
[5]; Caspase 3 ELISA, vehicle baseline set to zero
  average increase in apoptosis from vehicle baseline: ≤ 173%
[5]
  apoptosis (Caspase 3 activation): induced in a dose-dependent manner
[5]; single drug or 500 nM TEM or PAC with DEX 10, 50, 500 nM, FIG. 19B
  apoptosis (cytoplasmic caspase 3) compared to vehicle control: promote apoptosis (lack of inhibition)
[6]
  LDH release (necrosis and cytolysis): dose-dependent relationship
  necrotic cytotoxicity (LDH): demonstrated necrotic cytotoxicity
[7]
  inhibitory activity in the MTT assay: at higher concentrations had inhibitory activity
  inhibition of metabolic activity and proliferation (MTT assay): at higher concentrations had inhibitory activity

## CO[C@H]1C[C@@H]2CC[C@@H](C)[C@@](O)(O2)C(=O)C(=O)N2CCCC[C@H]2C(=O)O[C@H]([C@H](C)C[C@@H]2CC[C@@H](OC(=O)C(C)(CO)CO)[C@H](OC)C2)CC(=O)[C@H](C)/C=C(\C)[C@@H](O)[C@@H](OC)C(=O)[C@H](C)C[C@H](C)/C=C/C=C/C=C/1C [temsirolimus]
[1]; pig, in vivo
  relation of observed blood concentrations to dose: proportional to dose
  whole blood levels at 28 days and at termination: below LLOQ
[8]
  % HHF-35 positive intimal/medial area (marker of vascular smooth muscle cell viability): smaller
[2]
  PDGF-induced IL6 levels: dose-dependent reduction
[3]
  inhibition of BrdU incorporation (cellular proliferation): approached the degree of inhibition of actinomycin D
[4]
  PDGF-induced TNFα levels: dose-dependent reduction
[9]
  mineralization in tissues: not previously seen
[10]
  time post-dosing up to which drug was measured in the local vascular tissue: up to 28 days
[7]
  inhibitory activity in the MTT assay: at higher concentrations had inhibitory activity
  inhibition of metabolic activity and proliferation (MTT assay): at higher concentrations had inhibitory activity
[11]; Torisel 2 mg/mL with dexamethasone 6 mg/mL, perivascular, peripheral arteries
  temsirolimus levels in the blood, time course: peaked at early time points, declined over time to 7 days
[11]; day 14
  temsirolimus levels in the blood at termination: below the lower limit of quantitation (LLOQ)
[11]; day 14, one value per test animal
  level in homogenized vascular tissue at term: 97.5 ng/g
[11]; day 14, printed as equivalent
  level in vascular tissue at term, molar equivalent: 94.7 nM
[11]; pig, in vivo, level in homogenized vascular tissue at term, day 14, one value per test animal
  concentration at 14 days: 50.3 ng/g
[11]; pig, in vivo, level in vascular tissue at term, molar equivalent, day 14, printed as equivalent
  concentration at 14 days: 48.8 nM

## C[C@@H]1C[C@H]2[C@@H]3CCC4=CC(=O)C=C[C@]4(C)[C@@]3(F)[C@@H](O)C[C@]2(C)[C@@]1(O)C(=O)CO [dexamethasone]
[5]
  apoptosis (Caspase 3 activation): did not induce significant apoptosis
[6]
  LDH release (necrosis and cytolysis): suppressed LDH release compared to vehicle
  necrotic cytotoxicity (LDH): not observed
[11]; pig, in vivo
  dexamethasone levels in plasma at the 24-hour time point and after: below LLOQ
  tissue levels at 14 days: below LLOQ
